# Reference: ChEMBL document CHEMBL1138055, “Tetraoxane antimalarials and their reaction with Fe(II)” (J Med Chem, 2006)
# pIC50: −log10 of the molar value. Values joined by “and” are separate entries in the source; they are usually repeats but may differ in a detail not shown here. Equal entries are not always repeated.
# Key:
# [1] = test system: LOX IMVI; test: Antiproliferative activity against human LOX IMVI cell line after 48 hrs; type: functional; settings: for CC50: read-out: LC50 (the source's name)
# [2] = species on record: Mus musculus; test: Intrinsic clearance in mouse liver microsomes; type: ADME, Microsome
# [3] = test system: Plasmodium falciparum
# Description: (§1) Antimalarial activity against Plasmodium falciparum W2
# [4] = test system: Liver microsomes; test: Intrinsic clearance in human liver microsomes; type: ADME, Microsome
# [5] = test system: Plasmodium falciparum; remark: listed apart in the source
# Description: (§2) Antimalarial activity against Plasmodium falciparum D6
# [6] = Half life in human liver microsomes; type: ADME, Microsome
# [7] = test system: 786-0; test: Antiproliferative activity against human 786-0 cell line after 48 hrs; type: functional; settings: 786-0, 48 h
# [8] = test system: Plasmodium falciparum; remark: listed apart in the source
# Description: (§3) Antimalarial activity against Plasmodium falciparum TM91C235
# [9] = Half life in mouse liver microsomes; type: ADME, Microsome
# [10] = test system: SF-539; test: Antiproliferative activity against human SF539 cell line after 48 hrs; type: functional; settings: SF-539, 48 h
# [11] = test system: SK-MEL-28; test: Antiproliferative activity against human SK-MEL28 cell line after 48 hrs; type: functional; settings: SK-MEL-28, 48 h
# [12] = test system: IGROV-1; test: Antiproliferative activity against human IGROV1 cell line after 48 hrs; type: functional; settings: for CC50: read-out: LC50 (the source's name)
# [13] = test system: EKVX; test: Antiproliferative activity against human EKVX cell line after 48 hrs; type: functional
# [14] = test system: Mus musculus; test: Effect on survival of CD1 mice (Mus musculus) infected with Plasmodium berghei KBG173 at 600 mg/kg/day, perorally; type: functional, organism-based; set-up: route oral; settings: route oral
# [15] = test system: COLO 205; test: Antiproliferative activity against human COLO 205 cell line after 48 hrs; type: functional; settings: for CC50: read-out: LC50 (the source's name)
# [16] = test system: U-251; test: Antiproliferative activity against human U251 cell line after 48 hrs; type: functional; settings: U-251, 48 h
# [17] = test system: Mus musculus; test: Effect on survival of CD1 mice (Mus musculus) infected with Plasmodium berghei KBG173 at 200 mg/kg/day, perorally; type: functional; settings: route oral
# [18] = test system: Mus musculus; test: Effect on survival of CD1 mice (Mus musculus) infected with Plasmodium berghei KBG173 at 50 mg/kg/day, perorally; type: functional; settings: route oral
# [19] = test system: HOP-62; test: Antiproliferative activity against human HOP62 cell line after 48 hrs; type: functional; settings: for CC50: read-out: LC50 (the source's name)
# [20] = test system: ACHN; test: Antiproliferative activity against human ACHN cell line after 48 hrs; type: functional
# [21] = test system: UO-31; test: Antiproliferative activity against human UO31 cell line after 48 hrs; type: functional; settings: for CC50: read-out: LC50 (the source's name)
# [22] = test system: SR; test: Antiproliferative activity against human SR cell line after 48 hrs; type: functional
# [23] = test system: SNB-75; test: Antiproliferative activity against human SNB75 cell line after 48 hrs; type: functional; settings: SNB-75, 48 h
# [24] = test system: HCT-15; test: Antiproliferative activity against human HCT15 cell line after 48 hrs; type: functional; settings: HCT-15, 48 h
# [25] = test system: PC-3; test: Antiproliferative activity against human PC3 cell line after 48 hrs; type: functional; settings: PC-3, 48 h
# [26] = test system: DU-145; test: Antiproliferative activity against human DU145 cell line after 48 hrs; type: functional; settings: DU-145, 48 h
# [27] = test system: SK-MEL-2; test: Antiproliferative activity against human SK-MEL2 cell line after 48 hrs; type: functional; settings: SK-MEL-2, 48 h
# [28] = test system: UACC-62; test: Antiproliferative activity against human UACC62 cell line after 48 hrs; type: functional; settings: UACC-62, 48 h
# [29] = test system: Plasmodium falciparum; test: microbe, parasite or virus in culture; settings: TM91C235
# Description: as §3
# [30] = test system: Plasmodium falciparum; test: microbe, parasite or virus in culture; settings: D6
# Description: as §2
# [31] = test system: Plasmodium falciparum; test: microbe, parasite or virus in culture; settings: W2
# Description: as §1
# [32] = test system: Mus musculus; test: Effect on survival of CD1 mice (Mus musculus) infected with Plasmodium berghei KBG173 at 2 mg/kg/day, perorally; type: functional; settings: route oral
# [33] = test system: Mus musculus; test: Effect on survival of CD1 mice (Mus musculus) infected with Plasmodium berghei KBG173 at 4 mg/kg/day, peroral; type: functional; settings: route oral
# [34] = read-out: LC50 (the source's name)
structure (smiles),measurement,setting,value
CC(=O)O[C@H]1C[C@H]2[C@@H]([C@H](OC(C)=O)C[C@@H]3CC4(CC[C@@]32C)OOC2(CCC(C(N)=O)CC2)OO4)[C@@H]2CC[C@H]([C@H](C)CCC(N)=O)[C@@]12C (stereo in doubt; 7),GI50,[1],1850 nM
same,TGI,[1],3950 nM
same,CC50,[1],8420 nM
same,CL,[2],1.59 mL/min/g
same,pIC50,[3],7.77
same,IC90,[3],34.4 nM
same,CL,[4],3.4 mL/min/g
same,pIC50,[5],7.96
same,IC90,[5],17.3 nM
same,half-life,[6],21 min
same,GI50,[7],1690 nM
same,LC50,[7],8080 nM
same,TGI,[7],3700 nM
same,pIC50,[8],7.93
same,IC90,[8],56.7 nM
same,half-life,[9],38 min
CC(=O)O[C@H]1C[C@H]2[C@@H]([C@H](OC(C)=O)C[C@@H]3CC4(CC[C@@]32C)OOC2(CCC(C(=O)NCCN(C)C)CC2)OO4)[C@@H]2CC[C@H]([C@H](C)CCC(=O)NCCN(C)C)[C@@]12C (stereo in doubt; 11),GI50,[10],1470 nM
same,TGI,[10],2990 nM
same,CC50,[10]; [34],9930 nM
same,GI50,[1],1180 nM
same,TGI,[1],2820 nM
same,CC50,[1],19900 nM
same,CL,[2],< 0.6 mL/min/g
same,pIC50,[3],6.95
same,IC90,[3],126 nM
same,GI50,[11],1920 nM
same,TGI,[11],11300 nM
same,CC50,[11]; [34],37000 nM
same,CL,[4],< 0.6 mL/min/g
same,pIC50,[5],7.12
same,IC90,[5],94.1 nM
same,half-life,[6],> 120 min
same,GI50,"[12]; Homo sapiens, IGROV-1, 48 h",900 nM
same,TGI,"[12]; Homo sapiens, IGROV-1, 48 h",2620 nM
same,CC50,"[12]; Homo sapiens, IGROV-1, 48 h",13400 nM
same,pIC50,[8],7.09
same,IC90,[8],110 nM
same,half-life,[9],> 120 min
CC(=O)O[C@H]1C[C@H]2[C@@H]([C@H](OC(C)=O)C[C@@H]3CC4(CC[C@@]32C)OOC2(CCC(C)CC2)OO4)[C@@H]2CC[C@H]([C@H](C)CCC(N)=O)[C@@]12C (stereo in doubt; 15),GI50,[13],1010 nM
same,LC50,[13],5490 nM
same,TGI,[13],2350 nM
same,Activity,[14],29.2 days
same,TGI,[15],3190 nM
same,CC50,[15],6520 nM
same,GI50,[16],1780 nM
same,TGI,[16],3780 nM
same,CC50,[16]; [34],8060 nM
same,Activity,[17],27.2 days
same,Activity,[18],21.4 days
same,GI50,[12],1540 nM
same,TGI,[12],3070 nM
same,CC50,[12],6140 nM
same,GI50,[19],1470 nM
same,TGI,[19],2960 nM
same,CC50,[19],5960 nM
same,LC50,[20],1800 nM and 8350 nM
same,TGI,[20],3880 nM
same,TGI,[21],3080 nM
same,CC50,[21],6110 nM
CC(=O)O[C@H]1C[C@H]2[C@@H]([C@H](OC(C)=O)C[C@@H]3CC4(CC[C@@]32C)OOC2(CCC(C)CC2)OO4)[C@@H]2CC[C@H]([C@H](C)CCC(=O)O)[C@@]12C (stereo in doubt; 16),GI50,[22],1630 nM
same,TGI,[22],3820 nM
same,CC50,[22]; [34],8920 nM
same,Activity,[14],29 days
same,pIC50,[3],9.01
same,Activity,[17],24.8 days
same,pIC50,[5],8.82
same,Activity,[18],12.2 days
CC(=O)O[C@H]1C[C@H]2[C@@H]([C@H](OC(C)=O)C[C@@H]3CC4(CC[C@@]32C)OOC2(CCC(C)CC2)OO4)[C@@H]2CC[C@H]([C@H](C)CCC(N)=O)[C@@]12C (stereo in doubt; 17),GI50,"[13]; Homo sapiens, EKVX, 48 h",1430 nM
same,LC50,"[13]; Homo sapiens, EKVX, 48 h",5410 nM
same,TGI,"[13]; Homo sapiens, EKVX, 48 h",2780 nM
same,Activity,[14],30 days
same,GI50,"[15]; Homo sapiens, COLO 205, 48 h",1690 nM
same,TGI,"[15]; Homo sapiens, COLO 205, 48 h",3120 nM
same,CC50,"[15]; Homo sapiens, COLO 205, 48 h",5760 nM
same,GI50,[23],1980 nM
same,TGI,[23],4050 nM
same,CC50,[23]; [34],8280 nM
same,GI50,[24],1710 nM
same,TGI,[24],3430 nM
same,CC50,[24]; [34],6860 nM
same,pIC50,[3],7.85
same,GI50,[25],1970 nM
same,TGI,[25],4290 nM
same,CC50,[25]; [34],9310 nM
same,Activity,[17],21.8 days
same,pIC50,[5],7.70
same,Activity,[18],21.2 days
same,GI50,[26],1820 nM
same,TGI,[26],3260 nM
same,CC50,[26]; [34],5850 nM
same,GI50,[12],490 nM
same,TGI,"[12]; Homo sapiens, IGROV-1, 48 h",1840 nM
same,CC50,"[12]; Homo sapiens, IGROV-1, 48 h",4950 nM
same,GI50,"[19]; Homo sapiens, HOP-62, 48 h",1070 nM
same,TGI,"[19]; Homo sapiens, HOP-62, 48 h",2310 nM
same,CC50,"[19]; Homo sapiens, HOP-62, 48 h",4980 nM
same,GI50,[27],1710 nM
same,TGI,[27],3200 nM
same,CC50,[27]; [34],6010 nM
same,GI50,[28],1850 nM
same,TGI,[28],3990 nM
same,CC50,[28]; [34],8590 nM
same,LC50,[20],5730 nM
same,GI50,"[20]; Homo sapiens, ACHN, 48 h",1500 nM
same,TGI,"[20]; Homo sapiens, ACHN, 48 h",2930 nM
same,GI50,"[21]; Homo sapiens, UO-31, 48 h",1260 nM
same,TGI,"[21]; Homo sapiens, UO-31, 48 h",2640 nM
same,CC50,"[21]; Homo sapiens, UO-31, 48 h",5500 nM
CC(=O)O[C@H]1C[C@H]2[C@@H]([C@H](OC(C)=O)C[C@@H]3CC4(CC[C@@]32C)OOC2(CCC(C)CC2)OO4)[C@@H]2CC[C@H]([C@H](C)CCC(=O)O)[C@@]12C (stereo in doubt; 18),GI50,"[13]; Homo sapiens, EKVX, 48 h",1450 nM
same,LC50,"[13]; Homo sapiens, EKVX, 48 h",5780 nM
same,TGI,"[13]; Homo sapiens, EKVX, 48 h",2900 nM
same,Activity,[14],20 days
same,GI50,"[15]; Homo sapiens, COLO 205, 48 h",1980 nM
same,TGI,"[15]; Homo sapiens, COLO 205, 48 h",4400 nM
same,CC50,"[15]; Homo sapiens, COLO 205, 48 h",9780 nM
same,pIC50,[3],7.75
same,Activity,[17],22.6 days
same,pIC50,[5],7.51
same,Activity,[18],10.2 days
same,GI50,"[12]; Homo sapiens, IGROV-1, 48 h",1400 nM
same,TGI,"[12]; Homo sapiens, IGROV-1, 48 h",2760 nM
same,CC50,"[12]; Homo sapiens, IGROV-1, 48 h",5430 nM
same,GI50,"[19]; Homo sapiens, HOP-62, 48 h",1640 nM
same,TGI,"[19]; Homo sapiens, HOP-62, 48 h",3490 nM
same,CC50,"[19]; Homo sapiens, HOP-62, 48 h",7400 nM
same,GI50,"[21]; Homo sapiens, UO-31, 48 h",1500 nM
same,TGI,"[21]; Homo sapiens, UO-31, 48 h",3000 nM
same,CC50,"[21]; Homo sapiens, UO-31, 48 h",6020 nM
C[C@@H]1CC[C@H]2[C@@H](C)C(=O)O[C@@H]3O[C@@]4(C)CC[C@@H]1[C@]32OO4 [ARTEMISININ],pIC50,[29],7.88
same,IC90,[29],17.4 nM
same,pIC50,[30],8.05
same,IC90,[30],12.8 nM
same,pIC50,[31],8.17
same,IC90,[31],11.5 nM
CCN(CC)CCCC(C)Nc1ccnc2cc(Cl)ccc12 (stereo not given) [CHLOROQUINE],IC90,[29],269 nM
same,IC90,[30],17.6 nM
same,Activity,[32],12.8 days
same,IC90,[31],492 nM
same,Activity,[33],25.6 days
O[C@@H](c1cc(C(F)(F)F)nc2c(C(F)(F)F)cccc12)[C@H]1CCCCN1 [MEFLOQUINE],pIC50,[29],7.79
same,IC90,[29],65.7 nM
same,pIC50,[30],7.98
same,IC90,[30],21.7 nM
same,pIC50,[31],8.51
same,IC90,[31],8.4 nM
